Experimental data reported in article PMC3343029, “Crystal Structure of the Cysteine Desulfurase DndA from Streptomyces lividans Which Is Involved in DNA Phosphorothioation” (PLoS ONE, 2012).

Molecular target: T1, DndA (Streptomyces lividans, UniProt A7TUX7, C344S)
T1 construct: full length residues 1-380, N-terminal His-tag (pET28a), expressed in E. coli BL21(DE3); homodimer; residues 2-359 in the model
Experiment: X-ray crystallography, […] Å
Assay type: binding
Details: covalent; Schiff base with Lys200; crystals at pH 5.5 without L-cysteine

T1 sequence (A7TUX7 entry or part of it C344S): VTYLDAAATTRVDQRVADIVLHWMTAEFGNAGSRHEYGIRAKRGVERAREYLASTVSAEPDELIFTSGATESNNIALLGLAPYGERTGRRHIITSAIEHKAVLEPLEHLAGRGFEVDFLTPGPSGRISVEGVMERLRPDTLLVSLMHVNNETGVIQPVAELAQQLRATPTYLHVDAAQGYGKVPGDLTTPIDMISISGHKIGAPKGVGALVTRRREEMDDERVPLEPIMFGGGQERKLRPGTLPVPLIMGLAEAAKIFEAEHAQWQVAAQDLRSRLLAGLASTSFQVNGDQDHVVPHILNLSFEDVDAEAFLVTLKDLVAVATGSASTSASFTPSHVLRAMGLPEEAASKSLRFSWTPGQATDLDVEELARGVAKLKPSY

Cc1ncc(COP(=O)(O)O)c(C=O)c1O [PLP]
X-ray crystallography, 2.4 Å: there is a PLP cofactor which forms a Schiff base covalent bond with the amino
